These results are taken from patent US9464121B2, “Compositions and methods for treating erectile dysfunction” (priority 2007, dated 2016).

The subject of one assay is C2C12 myoblasts. In words: Intracellular calcium determination with Fluo-3AM (confocal microscopy). Format: cell-based. The protocol: To confirm that the f40/7841 polypeptide had no effect on calcium flux, C2C12 myoblasts were treated with f40/7841 polypeptide and intracellular calcium levels were assayed using the calcium-sensitive fluorchrome, Fluo-3AM. For the intracellular Ca^2+ measurements, a Confocal LSM 510 Meta Confocal (Zeiss, Jena, Alemania) microscope with a lasing line excitation of 488 nm was used. C2C12 cells were seeded in 60 mm culture dishes (Nalge Nunc International, Rochester, N.Y.) and cultured for 48 hours at which time each plate contained about 250,000 cells. The cells were loaded with fluorochrome in concentration of 4 μM fluo-3AM (Sigma) in 0.5% Me2SO and 0.1% of pluronic acid F-127 for 30 minutes at 37° C.; washed three times with a modified Dulbecco's solution with 10% of fetal bovine serum and returned to the incubator.
The fluorescence of Fluo-3AM was stimulated at 488 nm and measured at 515 nm using a bandpass filter. The intracellular Ca^2+ was measured for 10 seconds, followed by the addition of 1 μM f40/7841 polypeptide and 1.5 mM of carbachol. The Ca^2+ changes were monitored for 2 minutes and the images were taken every 1.5 sec. The calcium ionophore 4-Br-A23187 (5 μM) followed by 10 mM EGTA were then added to obtain the maximum calcium excitation (Fmax) and the minimum fluorescence (Fmin), respectively. The intracellular [Ca^2+] of fluorescence (F) obtained by the used f40/7841 was calculated in the following way: intracellular [Ca^2+]=Kd*(*F−F*min)/(*F*max−*F*), assuming 450 nM. *Kd* for the fluo-3AM, the concentrations were calculated in cellular populations that contained at least 10 cells.
(In general: A change in cytosolic calcium serves as a functional read-out for many receptors and channels.)

Assay [1] deals with corpus cavernosum. The assay is described as follows: In vitro corpus cavernosum assay for smooth muscle relaxation (isolated organ chamber, phenylephrine-contracted tissue). Format: cell-based, Wistar adult male rats. The procedure: The effect of polypeptides on corpus cavernosum contractile activity in vitro was analyzed in corpus cavernosum tissue harvested from Wistar adult male rats. Tissue was vertically positioned in an isolated organ chamber under the conditions described below. Adult male Wistar rats, aged 1.5-2 months and 250-350 g in weight were sacrificed by cervical dislocation and the penis was removed from the base, yielding about 2 cm of isolated tissue. The penile tissue was dissected under a Zeiss STEMI DV4 stereoscopic magnifying glass. The tunica albuginea, which protects the cavernous and spongious corpuses, was gently removed. The cavernous bodies were removed from their central position, obtaining two fragments of equal length and diameter, which were then transferred to a Tyrode physiological solution properly oxygenated (mix of 95% O2 and 5% CO2), at 37° C. at pH 7.4.
The cavernous segments were tied with silk at their distal and proximal extremes and immersed in a Tyrode physiologic solution in the chambers. The distal part was tied to the connecting rod and the proximal portion was connected to the isometric contraction transducer (TRI 201/0-25 g) connected to an analogue/digital interphase Power Lab/4SP Ad instrument, making it possible to store and analyse the registered signals by the use of Chart 5 software. Essentially, the fragments were connected to a analogic tension transducer, which transferred its signal to a Power Lab-Letica interphase, which records, graphs and stores the information generated by the physiologic preparation in force/time (g/min scale).
Prior to assaying the polypeptides, the isolated corpus cavernosum samples were stabilized as follows. After placing the corpus cavernosum in the isolated organ chamber, a 0.5 g tension at a normal velocity (1:1 proportion) was applied for one hour. During this time the basal tension and oxygenation (10 ml/min) remained constant. After the first 20 minutes, the preparation was washed using Tyrode physiologic solution, the tension was fixed and the procedure was repeated every 20 minutes for a total of 4 times. In the final washing process, in Chart 5 control system, the recording speed was modified from 10× to 1×.
The ability of f40/7841 to induce smooth muscle relaxation was assayed in the corpus cavernosum assay described in Example 2 in the presence of 50 μM phenylephrine, a pharmacological agonist of the alpha-adrenergic receptor that induces smooth muscle contraction.
To determine the relaxation potential it was necessary to induce first a maximum contractile response (control), in the presence of a drug that activates α-adrenergic receptors, phenylephrine (50 μM). The obtained results of the experimental series are statistically analyzed with a statistical significance of P<0.05, and graphed with GraphPad Prim.V.3.02 software.

For assay [2], the target named is T1, alpha 7 nicotinic acetylcholine receptor (α7nAch) (Homo sapiens, UniProt P36544).
T1 construct: expressed in transfected cells; host or cells: PC12 cells
T1 sequence (P36544 23-502): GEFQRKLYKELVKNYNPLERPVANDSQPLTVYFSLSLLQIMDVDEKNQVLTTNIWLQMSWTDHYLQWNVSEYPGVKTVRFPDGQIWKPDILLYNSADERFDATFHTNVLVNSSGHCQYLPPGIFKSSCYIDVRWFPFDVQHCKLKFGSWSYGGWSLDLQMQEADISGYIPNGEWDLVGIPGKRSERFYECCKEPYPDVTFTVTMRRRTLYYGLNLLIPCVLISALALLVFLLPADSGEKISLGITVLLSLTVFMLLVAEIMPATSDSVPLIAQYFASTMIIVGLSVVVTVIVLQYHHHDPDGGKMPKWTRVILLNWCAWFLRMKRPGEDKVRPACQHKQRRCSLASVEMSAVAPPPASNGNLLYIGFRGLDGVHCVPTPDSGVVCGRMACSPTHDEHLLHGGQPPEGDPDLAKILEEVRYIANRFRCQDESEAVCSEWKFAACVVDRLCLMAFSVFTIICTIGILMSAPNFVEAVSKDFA
In words: Whole-cell patch clamp of PC12 cells engineered to express the alpha 7 nicotinic acetylcholine receptor. In kind it is cell-based. The procedure: The ability of the f40/7841 polypeptide to activate nicotinic acetylcholine receptors (nAChR) was assayed by whole cell patch clamp analysis of PC12 cells that had been engineered to express the alpha 7 nicotinic acetylcholine receptor (α7nAch). PC12 cells were transfected and cultured for 48 hours in an 80% of MEM, solution that contained (mM): 150 NaCl, 5.4 KCl, 2.0 CaCl2, 1.0 MgCl2, 10 glucose and 10 Hepes (7.4), 2 mM, and 10% of fetal bovine serum at 37° C. (Trifaro et al. In vitro Cell Dev. Biol. 1990). The cells were incubated for one hour at 22° C. before starting the experiments. The current changes were detected through a whole-cell patch-clamp system through a Warner PC-501^a amplifier and an inverted Olympus 9° 70 microscope. The membrane potential was adjusted to −60 mV; the current was recorded at intervals of 5 μs and it was filtered at 2 Kh using a computer connected to a recording system through an acquisition card Digidata 9.0 (Axon Instrument, Inc) and the software PC 9 (Axon Instrument, Inc). The stock solution for the assays with the peptides were kept refrigerated at 4° C. and the micropipettes contained an internal solution of: 140 mM NaCl, 5 mM KCl, 2 mM CaCl2, 1.5 mM MgCl2, and 10 mM HEPES, pH 7.4.
The purified f40/7841 polypeptide was purified according to the method in Example 1. 0.1 mg of the polypeptide was diluted in 100 μl. of sterile PBS at pH 7.4. […]

The test system of assay [3] is corpus cavernosum. In words: In vitro corpus cavernosum assay for smooth muscle relaxation (isolated organ chamber, phenylephrine-contracted tissue). To be noted: phenylephrine 5 μM, atropine 1 μM, polypeptide 1 μgml (FIG. 13). Format: cell-based, Wistar adult male rats.

“Also recorded” adds a separate entry of the source. Where a name gives a salt, the structure may show the parent alone.

`CNc1c(Br)cc2oc(C[C@H]3OC4(CC[C@H]3C)O[C@H]([C@H](C)C(=O)c3ccc[nH]3)[C@H](C)C[C@H]4C)nc2c1C(=O)O` (some centres unmarked) [4-Br-A23187]: the “Fluo-3AM fluorescence (calcium) after ionophore” value with C2C12 myoblasts (4-Br-A23187 5 μM, positive control (FIG. 17)) is “sharp spike of fluorescence”.
Turning to `O=C(O)CN(CCOCCOCCN(CC(=O)O)CC(=O)O)CC(=O)O` [EGTA], the “effect on ionophore-induced fluorescence spike” value in the assay on C2C12 myoblasts (10 mM EGTA added after 4-Br-A23187 (FIG. 17)) is recorded as “abolished”.
For the molecule `CN1[C@@H]2CC[C@H]1C[C@@H](OC(=O)C(CO)c1ccccc1)C2` (some centres unmarked) [atropine], the “tonic response to phenylephrine in the presence of atropine” value in the assay with corpus cavernosum [1] (atropine 1 uM added after 40 minutes of phenylephrine (FIG. 13, upper tracing)) is “gradually reduced over time”.
Turning to `C[N+](C)(C)CCOC(N)=O` [carbachol], the potassium current in assay [2] (10 μM carbachol, positive control, membrane potential −60 mV (FIG. 15)) is reported as 10 pA.
Take `CNC[C@H](O)c1cccc(O)c1` [phenylephrine]: in the assay on corpus cavernosum [1] (phenylephrine 50 μM (FIG. 7, FIG. 9)), the “contractile response of corpus cavernosum” value was “phasic contractile response followed by a steadily maintained tonic response; also recorded: quick phasic contraction”.
Consider `CCCc1nn(C)c2c(=O)[nH]c(-c3cc(S(=O)(=O)N4CCN(C)CC4)ccc3OCC)nc12` [sildenafil citrate, 1-[4-ethoxy-3-(6,7-dihydro-1-methyl-7-oxo-3-propyl-1H-pyrazolo[4,3-d]pyrimidin-5-yl)phenylsulfonyl]-4-methylpiperazine], for which the “contractile response after sildenafil citrate alone” value in the assay with corpus cavernosum [1] (1 μM, after 50 μM phenylephrine, over a period of 25-30 minutes (FIG. 1)) was “slow decrease of the contractile response”. In the assay with corpus cavernosum [1] (after 50 μM phenylephrine, typical value), the “concentration of sildenafil citrate alone required for a relaxation rate comparable to f40/7841 plus 1 μM sildenafil citrate” value turned out to be 100 µM.

B1: f40/7841 (protein)
chain: GDSLDPAEFACADDIDQAELLKNNDICLQCEDLHKEGLVFSLCKTNCFSTEYFQHCVKDLEEAKKEPPE
modifications: also: blocked N-terminus, not given here
For B1, the “ability to induce relaxation in the presence of atropine” value in the assay on corpus cavernosum [3] was “attenuated”. For the same molecule, in assay [2] (0.1 μg/ml polypeptide, membrane potential −60 mV (FIG. 16, in the presence of carbachol)), the rapid potassium current was determined as 500 pA. Also, the “calcium flux (intracellular Ca2+, Fluo-3AM fluorescence)” value in the assay with C2C12 myoblasts (1 μM polypeptide and 1.5 mM carbachol, monitored for 2 minutes (FIG. 17)) was “did not induce calcium flux”. Further, the “ability to induce relaxation, atropine added prior to phenylephrine” value with corpus cavernosum [1] (1 μM atropine, then phenylephrine 50 μM, polypeptide 2 μg/ml after twenty minutes (FIG. 14)) is recorded as “attenuated”. The “effect on tonic contraction (relaxation)” value in the assay on corpus cavernosum [1] (2 μg/ml added after 20 minutes of 50 μM phenylephrine (FIG. 10)) was “rapid decrease in tonic contraction”. In addition, the “relaxation of contracted tissue in the presence of L-NAME (nitric oxide synthase inhibitor)” value in the assay on corpus cavernosum [1] (phenylephrine, then L-NAME 10 mM, then polypeptide 0.02, 0.2 or 2 μg/ml (FIG. 11, FIG. 12), listed as f40/7481) was “did not induce a decrease in contraction; also recorded: abolished”. For the same molecule, in the assay with corpus cavernosum [1] (polypeptide 2 μg/ml plus 1 μM sildenafil citrate, after 50 μM phenylephrine (FIG. 1)), the “contractile response on co-addition with sildenafil citrate, compared to sildenafil citrate alone” value is recorded as “significant decrease in the contractile response”.
